Several values for one entry are separate records, joined by “and”; a condition that tells them apart may be missing. Equal values may be shown once.
Experiments:
CFTR R1162X = experiment: Functional CFTR channel activity, TECC-24 electrophysiology, 16HBE cells (CFTR R1162X readthrough); type: cell-based, human
Protocol: (§1) 16HBE human bronchial epithelial cells were seeded onto Transwell 24-well filter inserts coated with human collagen type IV. Cells were seeded 7 days prior to functional testing at a density of 1.7×10^5 cells onto the “apical” chamber filter of the Transwell insert. Cells were grown as submerged cultures (200 μL apical/700 μL basolateral) in Minimal Essential Medium (MEM) containing 10% qualified Fetal Bovine Serum and 1% Penicillin/Streptomycin and incubated at 37° C. and 5% CO2. Growth media on cells was replenished with fresh media every 1-3 days prior to test agent treatment day. After 7 days in culture, the CFTR-mediated chloride (Cl^−) equivalent current (Ieq) of the 16HBE cells was recorded, which may typically form electrically tight epithelia with a transepithelial resistance (Rt) of 2000-6000 Ω·cm2 as described below. Forty-eight hours prior to electrophysiological measurements, fresh growth media containing the test agents was applied to both chambers separating filter bound epithelial monolayer.
(§2) On the day of electrophysiology studies, electrodes of a “Multi-(24-channel) transepithelial current clamp amplifier” (MTECC-24 (TECC-24 for short), EP Devices, Belgium) were soaked in an assay buffer (see below for composition) for at least 2 hours using 24-well Transwell plates without inserts. Cell culture media was replaced in the Transwell assay plates with assay buffer (see below) and the plates were mounted onto a custom-built automated robotic assay platform (Yamaha RCX240S controller) with heated plate holders set at 37° C. for 60 min. After equilibration, transepithelial potential difference (PD) and resistance (Rt) was monitoredat ˜5 min intervals using the TECC-24 transepithelial current clamp. Electrode potential differences were monitored for each pair of Ag/AgCl voltage electrodes by taking voltage measurements from a control (“blank”) plate with matching buffer solutions and 16HBE cells that were not treated with any test agent. PD values for each electrode pair were subtracted from the blank plate from that of the test plates at each time point. Ieq was calculated from the corrected PD values and Rt using Ohm's law. Ieq values were slope corrected to account for measurement drift over time using the equation: Slope corrected value=calculated Ieq−((time x slope)+y-intercept) with the slope and y-intercept calculated from the data points captured during the initial baseline period and following addition of the CFTR inhibitor.
(§3) The equivalent current (Ieq) traces associated with CFTR channel activation were plotted as baseline subtracted mean±standard deviation from 3-4 separate wells on the 24-well Transwell (n=3-4). There are 4 recording periods, with the first set of data points recorded baseline Ieq currents prior to sequential activation of available CFTR channels with forskolin (10 μM) and then in combination with potentiator VX-770/ivacaftor (1 μM). Recorded the last set of data points in the presence of CFTR inhibitor CFTRinh-172 (20 μM) to confirm that currents are mediated via activation of CFTR channels. The test agents and control/reference compounds were pre-diluted to 10-fold concentrations in assay buffer and added manually using a multi-channel pipette to both the basolateral and apical side of the membrane (test plates only). Employed CFTR-mediated changes in Ieq, (i.e. forskolin/VX-770 activated currents) to measure functional CFTR surface expression or treatment-related functional rescue of mutant CFTR.
(§4) The magnitude of test agent mediated enhancement of functional CFTR currents was calculated by comparing forskolin/VX-770 stimulated Ieq relative to baseline/CFTRinh-172 Ieq following 48 hour pretreatment with test agent(s) and normalizing to the forskolin/VX-770 stimulated Ieq determined following 48 hour pretreatment with a maximally effective concentration a reference control aminoglycoside agent (typically 110 μM G418). […]

CFTR G542X = experiment: Functional CFTR channel activity, TECC-24 electrophysiology, 16HBE cells (CFTR G542X readthrough); type: cell-based, human
Protocol: as §1, §2, §3, §4

[1] = system: recombinant human CFTR carrying the premature stop codon (PTC) mutation G542X; experiment: CFTR-PTC mutant translation readthrough, Nanoluc tagged CFTR luminescence (G542X cell line); type: cell-based; conditions: 10 μM G418 alone; 48 hours; cell line (G542X or R1162X) not specified
Method in brief: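 Readthrough is the 48 h compound-induced luminescence increase scaled to that of maximal G418 (125-250 μM). Compounds run from 50 μM final in 2-fold steps, ±10 μM G418, on 16HBE lines carrying Nanoluc-tagged CFTR G542X (extracellular loop 4 tag) or R1162X (C-terminal tag), with 3 μM VX-809 present.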

[2] = RTM conc. —, eRF3 modulator (CC-90009) 1 uM, ELX-02 100 uM
[3] = no RTM, eRF3 modulator (CC-90009) 1 uM, G418 10 uM
[4] = no RTM, eRF3 modulator (CC-90009) 10 uM, G418 10 uM
[5] = no RTM, eRF3 modulator (CC-90009) 1 uM, Paramomycin 2000 uM

C[C@H](N)[C@H]1O[C@@H](OC2C(O)C(N)CC(N)C2OC2OC([C@@H](C)O)C(O)C(O)C2N)C(O)C1O (stereo partly drawn) [ELX-02, reference compound]
Currents (% of 110 μM G418 (Max effect)) (CFTR R1162X; [2]): 198 % of 110 μM G418 (Max effect) | Currents (% of 110 μM G418 (Max effect)) (CFTR G542X; [2]): 191 % of 110 μM G418 (Max effect)

CN[C@@H]1[C@@H](O)[C@@H](O[C@@H]2[C@@H](O)[C@H](O[C@H]3O[C@H]([C@@H](C)O)[C@@H](O)[C@H](O)[C@H]3N)[C@@H](N)C[C@H]2N)OC[C@]1(C)O [Example G418, G418, reference compound]
response (Nanoluc luminescence) relative to a maximally effective concentration of G418 [1]: approximately 10 % of the response observed with a maximally effective concentration of G418 (typically 125-250 μM) | Currents (% of 110 μM G418 (Max effect)) (CFTR R1162X; [3]): 110 % of 110 μM G418 (Max effect) and 95 % of 110 μM G418 (Max effect) | Currents (% of 110 μM G418 (Max effect)) (CFTR R1162X; [4]): 130 % of 110 μM G418 (Max effect) and 139 % of 110 μM G418 (Max effect) | Currents (% of 110 μM G418 (Max effect)) (CFTR G542X; [3]): 130 % of 110 μM G418 (Max effect) | Currents (% of 110 μM G418 (Max effect)) (CFTR G542X; [4]): 102 % of 110 μM G418 (Max effect)

NC[C@@H]1O[C@H](O[C@H]2[C@@H](O)[C@H](O[C@@H]3[C@@H](O)[C@H](N)C[C@H](N)[C@H]3O[C@H]3O[C@H](CO)[C@@H](O)[C@H](O)[C@H]3N)O[C@@H]2CO)[C@H](N)[C@@H](O)[C@@H]1O [Paramomycin, paramomycin, reference compound]
Currents (% of 110 μM G418 (Max effect)) (CFTR R1162X; [5]): 55 % of 110 μM G418 (Max effect) | Currents (% of 110 μM G418 (Max effect)) (CFTR G542X; [5]): 65 % of 110 μM G418 (Max effect)

Cc1cccc(C(F)(F)F)c1COc1ccc(N2CC(CO)OC2=O)cc1 (stereo not drawn) [drawing 840]
Currents (% of 110 μM G418 (Max effect)) (CFTR G542X; RTM 1 uM, eRF3 modulator (CC-90009) 1 uM, G418 10 uM): 290 % of 110 μM G418 (Max effect)

O=C1O[C@H](CO)CN1c1ccc(OCc2c(Cl)cccc2Cl)cc1 [drawing 841]
Currents (% of 110 μM G418 (Max effect)) (CFTR G542X; RTM 5 uM, no eRF3 modulator, G418 10 uM): 54 % of 110 μM G418 (Max effect)

O=C1O[C@H](CO)CN1c1ccc(OCc2c(Cl)cccc2Cl)cc1 [drawing 842]
Currents (% of 110 μM G418 (Max effect)) (CFTR G542X; RTM 5 uM, eRF3 modulator (CC-90009) 10 uM, G418 10 uM): 323 % of 110 μM G418 (Max effect)

— patent US20250228865A1, “COMPOUNDS FOR ENHANCING READ THROUGH OF GENES CONTAINING PREMATURE TERMINATION CODONS AND METHODS FOR MAKING AND USING THE SAME” (Sanofi US Services Inc., priority 2022, published 2025)
